# Values of other authors in US20230404944A1, “CANNABINOID ENCAPSULATION TECHNOLOGY” (ZELIRA THERAPEUTICS OPERATIONS PTY LTD, priority 2020, published 2023).
compound,measurement,setting,value
"C=C(C)[C@@H]1CCC(C)=C[C@H]1c1c(O)cc(CCCCC)cc1O [CBD, cannabidiol]",Oral bioavailability in plasma,plasma,approximately 6%
same,Oral bioavailability in tissues,tissues,~1%
